Laboratory results: ChEMBL document CHEMBL4270599, “Synthesis of a 3'-C-ethynyl-β-d-ribofuranose purine nucleoside library: Discovery of C7-deazapurine analogs as potent antiproliferative nucleosides” (Eur J Med Chem, 2018)

Tests used:
Assay type in all cases: functional
CCRF-CEM = experiment: Cytotoxicity against human CCRF-CEM cells after 48 hrs by SRB assay
RPMI-8226 [1] = experiment: Cytotoxicity against human RPMI8226 cells after 48 hrs by SRB assay; settings: RPMI-8226, 48 h
A549 [2] = experiment: Cytotoxicity against human A549 cells after 48 hrs by SRB assay; settings: A549, 48 h
EKVX [3] = experiment: Cytotoxicity against human EKVX cells after 48 hrs by SRB assay
SW-620 [4] = experiment: Cytotoxicity against human SW620 cells after 48 hrs by SRB assay; settings: SW-620, 48 h
PC-3 [5] = experiment: Cytotoxicity against human PC3 cells after 48 hrs by SRB assay; settings: PC-3, 48 h
DU-145 = experiment: Cytotoxicity against human DU145 cells after 48 hrs by SRB assay; settings: DU-145, 48 h
RPMI-8226 [6] = experiment: Growth inhibition of human RPMI8226 cells assessed as cell growth at 10^-8 M incubated for 48 hrs by sulforhodamine B assay relative to control; settings: RPMI-8226, 48 h, read-out: Activity
EKVX [7] = experiment: Growth inhibition of human EKVX cells assessed as cell growth at 10^-8 M incubated for 48 hrs by sulforhodamine B assay relative to control; settings: read-out: Activity
OVCAR-5 = experiment: Growth inhibition of human OVCAR5 cells assessed as cell growth at 10^-8 M incubated for 48 hrs by sulforhodamine B assay relative to control; settings: OVCAR-5, 48 h, read-out: Activity
SK-OV-3 [8] = experiment: Growth inhibition of human SKOV3 cells assessed as cell growth at 10^-8 M incubated for 48 hrs by sulforhodamine B assay relative to control; settings: SK-OV-3, 48 h, read-out: Activity
TK-10 = experiment: Growth inhibition of human TK10 cells assessed as cell growth at 10^-8 M incubated for 48 hrs by sulforhodamine B assay relative to control; settings: TK-10, 48 h, read-out: Activity
HOP-92 = experiment: Growth inhibition of human HOP92 cells assessed as cell growth at 10^-7 M incubated for 48 hrs by sulforhodamine B assay relative to control; settings: HOP-92, 48 h, read-out: Activity
HCT-116 = experiment: Growth inhibition of human HCT116 cells assessed as cell growth at 10^-7 M incubated for 48 hrs by sulforhodamine B assay relative to control; settings: HCT-116, 48 h, read-out: Activity
KM12 = experiment: Growth inhibition of human KM12 cells assessed as cell growth at 10^-7 M incubated for 48 hrs by sulforhodamine B assay relative to control; settings: KM12, 48 h, read-out: Activity
Malme-3M [9] = experiment: Growth inhibition of human MALME-3M cells assessed as cell growth at 10^-7 M incubated for 48 hrs by sulforhodamine B assay relative to control; settings: read-out: Activity
MDA-MB-435 = experiment: Growth inhibition of human MDA-MB-435 cells assessed as cell growth at 10^-7 M incubated for 48 hrs by sulforhodamine B assay relative to control; settings: MDA-MB-435, 48 h, read-out: Activity
SK-OV-3 [10] = experiment: Growth inhibition of human SKOV3 cells assessed as cell growth at 10^-7 M incubated for 48 hrs by sulforhodamine B assay relative to control; settings: SK-OV-3, 48 h, read-out: Activity
ACHN = experiment: Growth inhibition of human ACHN cells assessed as cell growth at 10^-7 M incubated for 48 hrs by sulforhodamine B assay relative to control; settings: read-out: Activity
SN12C = experiment: Growth inhibition of human SN12C cells assessed as cell growth at 10^-7 M incubated for 48 hrs by sulforhodamine B assay relative to control; settings: read-out: Activity
NCI-H226 = experiment: Growth inhibition of human NCI-H226 cells assessed as cell growth at 10^-6 M incubated for 48 hrs by sulforhodamine B assay relative to control; settings: NCI-H226, 48 h, read-out: Activity
HCC 2998 = experiment: Growth inhibition of human HCC2998 cells assessed as cell growth at 10^-6 M incubated for 48 hrs by sulforhodamine B assay relative to control; settings: HCC 2998, 48 h, read-out: Activity
HL-60(TB) = experiment: Growth inhibition of human HL-60(TB) cells assessed as cell growth at 10^-5 M incubated for 48 hrs by sulforhodamine B assay relative to control; settings: HL-60, 48 h, read-out: Activity
COLO 205 = experiment: Growth inhibition of human COLO205 cells assessed as cell growth at 10^-5 M incubated for 48 hrs by sulforhodamine B assay relative to control; settings: COLO 205, 48 h, read-out: Activity
SW-620 [11] = experiment: Growth inhibition of human SW620 cells assessed as cell growth at 10^-5 M incubated for 48 hrs by sulforhodamine B assay relative to control; settings: SW-620, 48 h, read-out: Activity
Malme-3M [12] = experiment: Growth inhibition of human MALME-3M cells assessed as cell growth at 10^-5 M incubated for 48 hrs by sulforhodamine B assay relative to control; settings: read-out: Activity
PC-3 [13] = experiment: Growth inhibition of human PC3 cells assessed as cell growth at 10^-5 M incubated for 48 hrs by sulforhodamine B assay relative to control; settings: PC-3, 48 h, read-out: Activity
U-251 = experiment: Growth inhibition of human U251 cells assessed as cell growth at 10^-4 M incubated for 48 hrs by sulforhodamine B assay relative to control; settings: U-251, 48 h, read-out: Activity
OVCAR-4 = experiment: Growth inhibition of human OVCAR4 cells assessed as cell growth at 10^-4 M incubated for 48 hrs by sulforhodamine B assay relative to control; settings: OVCAR-4, 48 h, read-out: Activity
A549 [14] = experiment: Growth inhibition of human A549/ATCC cells assessed as cell growth at 10^-4 M incubated for 48 hrs by sulforhodamine B assay relative to control; settings: A549, 48 h, read-out: Activity
[15] = read-out: LC50 (the source's name)
[16] = read-out: pLC50 (the source's name) (converted)

Structure (SMILES): C#C[C@@]1(O)[C@@H](CO)O[C@@H](n2ccc3c(N)ncnc32)[C@@H]1O
- CC50 (CCRF-CEM; [15]): > 100 µM
- TGI (CCRF-CEM; read-out: TGI): > 100 µM
- GI50 (CCRF-CEM; read-out: pGI50 (converted)): 2290 nM
- TGI (CCRF-CEM; read-out: pTGI): > 100 µM
- CC50 (RPMI-8226 [1]; [15]): > 100 µM
- TGI (RPMI-8226 [1]; read-out: TGI): > 100 µM
- GI50 (RPMI-8226 [1]; read-out: pGI50 (converted)): 776 nM
- TGI (RPMI-8226 [1]; read-out: pTGI (converted)): > 100 µM
- TGI (A549 [2]; read-out: TGI): > 100 µM
- GI50 (A549 [2]; read-out: pGI50 (converted)): 1320 nM
- CC50 (A549 [2]; [16]): > 100 µM
- TGI (A549 [2]; read-out: pTGI (converted)): > 100 µM
- TGI (EKVX [3]; read-out: TGI): 5.43 µM
- GI50 (EKVX [3]; read-out: pGI50 (converted)): 1510 nM
- CC50 (EKVX [3]; [16]): > 100 µM
- TGI (EKVX [3]; read-out: pTGI (converted)): 5.37 µM
- TGI (SW-620 [4]; read-out: TGI): 12.7 µM
- GI50 (SW-620 [4]; read-out: pGI50 (converted)): 490 nM
- CC50 (SW-620 [4]; [16]): > 100 µM
- TGI (SW-620 [4]; read-out: pTGI (converted)): 12.6 µM
- TGI (PC-3 [5]; read-out: TGI): 3.54 µM
- GI50 (PC-3 [5]; read-out: pGI50 (converted)): 813 nM
- CC50 (PC-3 [5]; [16]): 33.1 µM
- TGI (PC-3 [5]; read-out: pTGI (converted)): 3.55 µM
- CC50 (DU-145; [15]): > 100 µM
- TGI (DU-145; read-out: TGI): 6.55 µM
- GI50 (DU-145; read-out: pGI50 (converted)): 562 nM
- TGI (DU-145; read-out: pTGI (converted)): 6.61 µM
- growth at 0.01 µM (RPMI-8226 [6]): 103%
- growth at 0.01 µM (EKVX [7]): 87%
- growth at 0.01 µM (OVCAR-5): 87%
- growth at 0.01 µM (SK-OV-3 [8]): 94%
- growth at 0.01 µM (TK-10): 101%
- growth at 0.1 µM (HOP-92): 104%
- growth at 0.1 µM (HCT-116): 92%
- growth at 0.1 µM (KM12): 102%
- growth at 0.1 µM (Malme-3M [9]): 97%
- growth at 0.1 µM (MDA-MB-435): 99%
- growth at 0.1 µM (SK-OV-3 [10]): 92%
- growth at 0.1 µM (ACHN): 101%
- growth at 0.1 µM (SN12C): 96%
- growth at 1 µM (NCI-H226): 92%
- growth at 1 µM (HCC 2998): 74%
- growth at 10 µM (HL-60(TB)): -24%
- growth at 10 µM (COLO 205): -54%
- growth at 10 µM (SW-620 [11]): 5%
- growth at 10 µM (Malme-3M [12]): -25%
- growth at 10 µM (PC-3 [13]): -37%
- growth at 100 µM (U-251): -30%
- growth at 100 µM (OVCAR-4): -100%
- growth at 100 µM (A549 [14]): 3%
